# Laboratory results reported in patent publication US20240398970A1, “B7-H3 TARGETING ANTIBODY-DRUG CONJUGATE, AND PREPARATION METHOD THEREFOR AND USE THEREOF” (priority 2020, published 2024).
# Numbered stars: 1 amine (or outer) side, 2 acyl side, 3 side chain; on linkers, the order of the positions; unused ones are H or OH. Square brackets hold non-standard residues; d marks the D form. Peptide text beside a SMILES is read from it. * marks the point of attachment. X1 = CC[C@@]1(O)C(=O)OCc2c1cc1n(c2=O)Cc2c-1nc1cc(F)c(C)c3c1c2C(N*)CC3; Hexanoyl(6-maleimido) = O=C1C=CC(=O)N1CCCCCC(=O)*; NHCH2OCH2CO = O=C(COCN[*:1])[*:2]
# Experiments:
# [1] = Coupling of linker-drug conjugates with other/different antibodies; format: physicochemical; conditions: coupling with antibodies other than or including FDA016
# cathepsin B = cathepsin B (Homo sapiens, UniProt P07858); assay: In vitro enzyme digestion of linker-drug conjugates; format: in vitro ADME; conditions: pH 5.0 to 7.0
# Description: The linker-drug conjugate (LE14 and GGFG-Dxd) was co-incubated with cathepsin B in three different pH (5.0, 6.0, 7.0) buffers. Samples were taken at different time points and entered into a high-performance liquid chromatography-mass spectrometry instrument. The external standard method (with DXD as the external standard) was used to determine the release percentage of the drug.
# NCI-N87 cell line = assay: Killing activity on NCI-N87 before and after enzyme digestion by cathepsin B system; format: cell-based; conditions: NCI-N87, 144 hours, after cathepsin B system pH 5.0, 37° C., 4 hours; read-out: IC50 (based on SN-38 equivalent) After Enzyme Digestion
# Description: NCI-N87 cell line was selected as the experimental cell lines. After the sample was incubated in cathepsin B system (100 mM sodium acetate-acetic acid buffer, 4 mM dithiothreitol, pH 5.0) at 37° C. for 4 hours, the obtained sample was diluted with culture medium to different concentrations. 8 concentrations (1.5 to 10-fold dilution) were set from 70 nM to 0.003 nM of SN-38 concentration. […] The IC50 value was calculated by reading the […] data after chemical luminescent staining with CellTiter-Glo® Luminescent Cell Viability Assay.
SMILES,Aggregation ratio when coupled with other/different antibodies [1],Precipitation when coupled with other/different antibodies [1],Speed of enzyme digestion (cathepsin B),IC50 (NCI-N87 cell line) [nM]
CC[C@@]1(O)C(=O)OCc2c1cc1n(c2=O)Cc2c-1nc1cc(F)c(C)c3c1c2C(NC(=O)COCNC(=O)CNC(=O)[C@H](Cc1ccccc1)NC(=O)CNC(=O)CNC(=O)CCCCCN1C(=O)C=CC1=O)CC3 (stereo partly shown) [GGFG-Dxd] ({Hexanoyl(6-maleimido)}-GGFG[NHCH2OCH2CO]-X1),high aggregation ratio,produced precipitation,slow speed of enzyme digestion,
"CCc1c2c(nc3ccc(O)cc13)-c1cc3c(c(=O)n1C2)COC(=O)[C@]3(O)CC [SN-38, 7-ethyl-10-hydroxycamptothecin]",,,,7.45
